Results reported in ChEMBL document CHEMBL4334513, “Discovery of a Potent, Selective, and Orally Available MTHFD2 Inhibitor (DS18561882) with in Vivo Antitumor Activity” (J Med Chem, 2019).

Key:
[1] = biological target: T1, C-1-tetrahydrofolate synthase, cytoplasmic (Homo sapiens, UniProt P11586)
T1 sequence (P11586 whole entry): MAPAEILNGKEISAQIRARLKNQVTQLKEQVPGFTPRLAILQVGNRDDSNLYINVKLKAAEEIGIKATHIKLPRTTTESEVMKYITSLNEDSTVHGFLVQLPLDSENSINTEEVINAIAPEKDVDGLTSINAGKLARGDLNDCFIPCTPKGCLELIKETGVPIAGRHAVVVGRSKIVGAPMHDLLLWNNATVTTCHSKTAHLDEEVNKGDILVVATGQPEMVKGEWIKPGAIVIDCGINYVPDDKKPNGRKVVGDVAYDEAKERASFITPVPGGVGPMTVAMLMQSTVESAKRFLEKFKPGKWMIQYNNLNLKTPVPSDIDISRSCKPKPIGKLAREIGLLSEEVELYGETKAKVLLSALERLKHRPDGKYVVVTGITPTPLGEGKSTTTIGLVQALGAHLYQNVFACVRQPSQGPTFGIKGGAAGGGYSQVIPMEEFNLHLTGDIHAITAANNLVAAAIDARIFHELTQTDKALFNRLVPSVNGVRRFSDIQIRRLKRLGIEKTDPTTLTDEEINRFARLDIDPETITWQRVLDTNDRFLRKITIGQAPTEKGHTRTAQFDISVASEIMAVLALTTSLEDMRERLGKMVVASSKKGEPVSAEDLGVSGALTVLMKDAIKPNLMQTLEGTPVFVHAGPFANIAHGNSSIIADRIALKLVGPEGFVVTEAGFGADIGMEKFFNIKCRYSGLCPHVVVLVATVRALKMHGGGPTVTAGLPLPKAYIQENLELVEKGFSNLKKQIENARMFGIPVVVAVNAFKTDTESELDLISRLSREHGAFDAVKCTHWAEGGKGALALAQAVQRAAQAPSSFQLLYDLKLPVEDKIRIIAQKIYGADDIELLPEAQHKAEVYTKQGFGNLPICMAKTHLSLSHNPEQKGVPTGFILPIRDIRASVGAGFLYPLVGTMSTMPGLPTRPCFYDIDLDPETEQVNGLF
Description: Inhibition of recombinant MTHFD1 (unknown origin) using THF as substrate incubated for 30 mins in presence of NAD

[2] = biological target: T2, Bifunctional methylenetetrahydrofolate dehydrogenase/cyclohydrolase, mitochondrial (Homo sapiens, UniProt P13995); assay: Inhibition of recombinant MTHFD2 (unknown origin) using THF as substrate incubated for 30 mins in presence of NAD
T2 sequence (P13995 whole entry): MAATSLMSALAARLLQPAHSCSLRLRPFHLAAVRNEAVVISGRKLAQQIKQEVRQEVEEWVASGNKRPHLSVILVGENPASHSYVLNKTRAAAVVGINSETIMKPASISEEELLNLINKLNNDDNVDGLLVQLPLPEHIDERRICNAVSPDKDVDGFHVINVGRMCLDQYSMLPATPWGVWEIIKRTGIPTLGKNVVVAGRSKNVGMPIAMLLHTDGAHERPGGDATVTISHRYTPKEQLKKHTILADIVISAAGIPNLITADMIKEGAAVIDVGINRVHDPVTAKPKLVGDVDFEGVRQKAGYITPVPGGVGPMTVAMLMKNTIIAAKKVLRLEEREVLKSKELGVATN

[3] = Antiproliferative activity against human MDA-MB-231-luc-D3H2LN cells assessed as inhibition of growth after 3 days by CellTiter Glo assay; format: functional; conditions: 72 h
[4] = Lipophilicity, logP of compound; format: physicochemical; conditions: octanol/water
[5] = Effective permeability of compound at pH 7.4 by PAMPA; format: ADME; conditions: read-out: Peff
[6] = Dissociation constant, acidic pKa of compound; format: physicochemical
[7] = Lipophilicity, logD of compound; format: physicochemical; conditions: octanol/water

Row | SMILES | IC50 [1] | IC50 [2] | logP [4] | Papp [5] | pKa [6] | logD [7] | GI50 [3]
1 | Cc1c(OCCN(C)C)ccc2c3c(c(=O)oc12)CN(C(=O)c1ccc(C(=O)O)cc1)CC3 | 5 µM | 0.049 µM |  |  |  |  | 
2 | Cc1cccc2oc(=O)c3c(c12)CCN(C(=O)c1ccc(C(=O)O)cc1)C3 | > 30 µM | 1.3 µM |  |  |  |  | 
3 | Cc1c(N2CCN(C)CC2)ccc2c3c(c(=O)oc12)CN(C(=O)c1ccc(NS(C)(=O)=O)c(Br)c1)CC3 | 4.2 µM | 0.033 µM | 1.9 | > 50 ×10⁻⁶ cm/s | 6.8 |  | 1.6 µM
4 | CN(C)CCCOc1ccc2c3c(c(=O)oc2c1)CN(C(=O)c1ccc(C(=O)O)cc1)CC3 | 18.7 µM | 0.36 µM |  |  |  |  | 
5 | Cc1c(N2CCN(C)CC2)ccc2c3c(c(=O)oc12)CN(C(=O)c1ccc(NS(C)(=O)=O)cc1)CC3 | > 30 µM | 0.2 µM | 1.6 | 5.4 ×10⁻⁶ cm/s | 8.2 |  | 6.3 µM
6 | COc1cc(C(=O)N2CCc3c(c(=O)oc4c(C)c(N5CCN(C)CC5)ccc34)C2)ccc1NS(C)(=O)=O | > 30 µM | 0.4 µM | 1.6 | 44.2 ×10⁻⁶ cm/s | 8.4 |  | 10 µM
7 | Cc1c(N2C[C@@H](C)N(C)[C@@H](C)C2)ccc2c3c(c(=O)oc12)CN(C(=O)c1ccc(NS(C)(=O)=O)c(Cl)c1)CC3 |  |  | 2.2 |  |  | 1.7 | 0.76 µM
8 | Cc1c(N2CCN(C)CC2)ccc2c3c(c(=O)oc12)CN(C(=O)c1ccc(NS(C)(=O)=O)c(F)c1)CC3 | 8 µM | 0.038 µM | 1.7 | 16.9 ×10⁻⁶ cm/s | 6.9 |  | 2 µM

Second part, led by results:

Row | IC50 [1] | IC50 [2] | logP [4] | Papp [5] | pKa [6] | logD [7] | SMILES | GI50 [3]
9 | > 30 µM | 0.089 µM | 1.8 | 6.6 ×10⁻⁶ cm/s |  |  | Cc1c(N2CCN(C)CC2)ccc2c3c(c(=O)oc12)CN(C(=O)c1cc(Cl)cc(NS(C)(=O)=O)c1)CC3 | 5.5 µM
10 | 27 µM | 0.39 µM |  |  |  |  | CN1CCC(Oc2ccc3c4c(c(=O)oc3c2)CN(C(=O)c2ccc(C(=O)O)cc2)CC4)CC1 | 
11 | > 30 µM | 0.32 µM |  |  |  |  | CN1CCN(c2ccc3c4c(c(=O)oc3c2)CN(C(=O)c2ccc(C(=O)O)cc2)CC4)CC1 | 
12 |  |  | 2 |  |  | 1.6 | Cc1c(N2CCN(C)[C@@H](C)C2)ccc2c3c(c(=O)oc12)CN(C(=O)c1ccc(NS(C)(=O)=O)c(Cl)c1)CC3 | 0.2 µM
